Laboratory results from PMC7663809, “Dual-Inhibitors of N-Myc and AURKA as Potential Therapy for Neuroendocrine Prostate Cancer” (International Journal of Molecular Sciences, 2020).
pIC50: −log10 of the molar value.

Assays:
LNCaP cells = test: Cell viability assay, LNCaP; assay type: cell-based, human; details: for Growth inhibition of LNCaP cells / pIC50: serial dilution; for Growth inhibition of LNCaP cells: up to 10 µM; for Inhibitory activity in LNCaP: 1 μM; for Inhibitory activity in LNCaP / viability at 5 µM / viability at 10 µM / pIC50: 72 h; for viability at 5 µM / viability at 10 µM / pIC50: Homo sapiens, LNCaP; for viability at 5 µM / viability at 10 µM: read-out: % activation (cell viability) in LNCaP; for pIC50: read-out: IC50, growth inhibition of LNCaP cells
Description: LNCaP were plated at 5000 cells per well in RPMI 1640 containing 5% CSS in a 96-well plate, treated with test compounds (0–25 μM) for 72 h. Cell density was measured using the PrestoBlue assay according to the manufacturer’s protocol. The percentage of cell survival was normalized to the cell density of control wells treated by vehicle. […]

22Rv1 cells = test: Cell viability assay, 22Rv1; assay type: cell-based, human; details: for Growth inhibition of 22Rv1 cells / pIC50: serial dilution; for Growth inhibition of 22Rv1 cells: up to 10 µM; for Inhibitory activity in 22Rv1: 1 μM; for Inhibitory activity in 22Rv1 / viability at 5 µM / viability at 10 µM / pIC50: 72 h; for viability at 5 µM / viability at 10 µM / pIC50: Homo sapiens, 22Rv1; for viability at 5 µM / viability at 10 µM: read-out: % activation (cell viability) in 22Rv1; for pIC50: read-out: IC50, growth inhibition of 22Rv1 cells
Description: (§1) NCI-H660 cells were purchased from the American Type Culture Collection (ATCC) and grown in RPMI medium supplemented with 5% fetal bovine serum (FBS), 1% Isulin-Transferrin-Selenium (Thermo Fisher, 41400-045, Waltham, MA, USA), 10 nM b-estradiol (Sigma, E8875; Darmstadt, Germany), 10 nM hydrocortisone (Sigma H0888), and 1% matrigel. HO15.19 cells were a generous gift from John Sidivy at Brown University and were cultured in Dulbecco’s modified Eagle’s medium (DMEM) (ATCC 30–2002) supplemented with 10% FBS. LNCaP-N-Myc and 22rv1-N-Myc cells were a generous gift from David Rickman at Weill Cornell Medicine (New York, NY, USA) and were cultured in RPMI supplemented with 10% FBS.
(§2) Viability of N-Myc -overexpressing LNCaP and 22Rv1 was done with 5000 cells per well in RPMI supplemented with 10% FBS and read with Cell Titer Glo (Promega, cat# G7572; Madison, WI, USA) according to the manufacturer’s protocol. Eagle’s minimum essential medium (EMEM) supplemented with 10% FBS was used for the Myc-negative HO15.19 cells at 2000 cells per well and 20,000 neuroendocrine NCI-H660 cells were plated in RPMI supplemented with 5% FBS, 1% Isulin-Transferrin-Selenium (Thermo Fisher, 41400-045), 10 nM b-estradiol (Sigma, E8875), 10 nM hydrocortisone (Sigma H0888), and 1% matrigel. All cells were incubated for 72 h with the compounds.

HO15.19 cells = test: Growth / viability in Myc negative cell line HO15.19; assay type: cell-based
Description: as §1
as §2, with “All cells were incubated for 72 h with the compounds.” left out

N-Myc-Max DBD = N-Myc-Max DBD (Homo sapiens, UniProt P04198+P61244); test: Biolayer interferometry: binding of N-Myc-Max complex to biotinylated E-box DNA; details: 100 µM and 200 µM
Description: The direct interaction between biotinylated E-box oligo immobilized on a streptavidin biosensor and a purified N-Myc-Max complex (0.05 mg/ml) was quantified by BLI using OctetRED (ForteBio). The DNA was first bound to the super-streptavidin sensors. The sensors were next moved into wells containing the reaction buffer (20 mM Tris pH 8, 150 mM NaCl, 5% glycerol, 0.2 mM TCEP, 5% dimethylsulfoxide) for measuring the baseline and next into the N-Myc-Max complex alone or in presence of the tested inhibitors to study the association of the complex to the DNA.

Myc-Max = Myc-Max luciferase transcription inhibition (Cignal Myc reporter) assay in LNCaP cells; assay type: cell-based; details: Homo sapiens, 24 h, 0-25 μM, 1 day
Description: The eGFP Myc transcriptional activity was assayed as previously described. Briefly, cell transfection was performed using TransIT-2020 transfection reagents according to the manufacturer’s instructions. LNCaP cells were plated at 10,000 cells per well and treated for 1 day with the indicated concentration of compound with increasing concentrations (0−25 μM) of compounds for screening and measuring IC50. Myc reporter activity was measured using the Cignal Myc Reporter Assay Kit from Qiagen (#336841; Hilden, Germany) according to the manufacturer’s instructions.

NCI-H660 cells = test: Cell viability assay, NCI-H660; assay type: cell-based; details: 72 h; for Inhibitory activity in NCI-H660: 1 μM; for viability at 5 µM / viability at 10 µM: NCI-H660, read-out: % activation (cell viability) in NCI-H660
Description: as §1, §2

AURKA = molecular target: T1, AURKA (Homo sapiens, UniProt O14965); test: Aurora A kinase activity assay (ADP-Glo); assay type: biochemical; details: read-out: AURKA enzyme activity remaining
T1 construct: 10 ng Aurora-A catalytic domain
T1 sequence (O14965 133-383 limits assumed): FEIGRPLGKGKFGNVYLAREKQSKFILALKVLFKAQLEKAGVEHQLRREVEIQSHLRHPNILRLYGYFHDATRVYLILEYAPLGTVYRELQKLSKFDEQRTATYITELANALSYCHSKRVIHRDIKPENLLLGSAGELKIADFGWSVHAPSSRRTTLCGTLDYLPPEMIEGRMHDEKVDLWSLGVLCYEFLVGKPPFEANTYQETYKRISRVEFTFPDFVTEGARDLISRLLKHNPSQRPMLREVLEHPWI
Description: AURKA kinase assays were performed using the ADP-Glo Kinase assay (Promega) according to the manufacturer protocol. Measurement of Aurora-A activity was carried out using reactions containing (per well):10 ng Aurora-A catalytic domain, 50 uM ATP, and 0.5 myelin basic protein (MBP), in 5% dimethyl sulfoxide (DMSO). Reactions were incubated at room temperature for 60 min, and luminescence data (integration time: 0.5–1 s) was recorded on a Tecan M200 Pro reader (Männedorf, Switzerland).

Sequence of N-Myc-Max DBD (P04198 377-464): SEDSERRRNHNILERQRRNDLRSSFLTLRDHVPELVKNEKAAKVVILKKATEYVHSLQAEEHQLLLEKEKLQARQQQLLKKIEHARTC
Sequence of N-Myc-Max DBD (P61244 22-102): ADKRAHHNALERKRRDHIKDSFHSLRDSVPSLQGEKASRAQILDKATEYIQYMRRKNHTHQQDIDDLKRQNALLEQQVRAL

Disruption of DNA binding to N-Myc-Max DBD (BLI) (N-Myc-Max DBD) | pIC50 (LNCaP cells) | pIC50 (22Rv1 cells) | pIC50 (Myc-Max) | Structure (SMILES) | Growth inhibition of LNCaP cells (LNCaP cells) | Growth inhibition of 22Rv1 cells (22Rv1 cells) | Inhibitory activity in LNCaP (LNCaP cells) | viability at 5 µM (LNCaP cells) | viability at 10 µM (LNCaP cells) | Inhibitory activity in 22Rv1 (22Rv1 cells) | viability at 5 µM (22Rv1 cells) | viability at 10 µM (22Rv1 cells) | Inhibitory activity in NCI-H660 (NCI-H660 cells) | viability at 5 µM (NCI-H660 cells) | viability at 10 µM (NCI-H660 cells) | other results
 |  |  |  | O=[N+]([O-])c1ccc(Nc2ccccc2-c2ccccc2)c2nonc12 [10074-G5, reference compound] | ineffective | ineffective |  |  |  |  |  |  |  |  |  | 
weak disruption | 4.95 | 4.81 | 5.40 | N#Cc1ccc(NNC(=O)c2ccc(C(F)(F)F)cc2)c(C(F)(F)F)c1 [compound 70551, N′-[4-cyano-2-(trifluoromethyl)phenyl]-4-(trifluoromethyl)benzohydrazide] |  |  | no significant inhibitory activity | > 75% | 49.7% | no significant inhibitory activity | > 75% | 78.8% | no significant inhibitory activity | > 75% | 49.2% | Toxicity in HO15.19 (HO15.19 cells; 20 μM, 120 h): slight toxicity; Effect on HO15.19 growth (HO15.19 cells; N-Myc null cell line, 120 h, below 20 μM): minimal effect
 |  |  |  | O=C(Nc1ccc(Nc2nccc(Nc3cc(C4CCCC4)[nH]n3)n2)cc1)Nc1cccc(C(F)(F)F)c1 [CD532, reference compound] |  |  |  |  |  |  |  |  |  |  |  | Cytotoxicity in N-Myc negative cell line HO15.19 (HO15.19 cells; 10, 5 and 1 µM, 72 h): cytotoxicity
 |  |  |  | CCc1ccc(/C=C2/SC(=S)NC2=O)cc1 [10058-F4, reference compound] | ineffective | ineffective |  |  |  |  |  |  |  |  |  | 
effectively disrupt | 5.52 | 5.43 | 5.70 | N#Cc1ccc(NNC(=O)c2ccc(Nc3nccc(Nc4cc(C5CCCC5)n[nH]4)n3)cc2)c(C(F)(F)F)c1 [compound 70812] |  |  | No discernable inhibitory activity | 32.5% | 1.4% | No discernable inhibitory activity | 66.5% | 16.6% | No discernable inhibitory activity | 82.9% | 52.1% | remaining activity at 5 µM (AURKA; 5 µM compound): 21.1%; remaining activity at 10 µM (AURKA; 10 µM compound): 19.9%; remaining activity at 15 µM (AURKA; 15 µM compound): 18.7%; remaining activity at 30 µM (AURKA; 30 µM compound): 21.4%
